EC50 data for 44 compounds are collected here from patent US10759816B2, “Heterocyclic compounds as RSV inhibitors” (Enanta Pharmaceuticals, Inc., priority 2016, dated 2020).

The structures appear in SMILES notation. Read-outs that look alike come from different tables or passages of the source. A value given as a limit tells only on which side of the number the result lay.

In this test the test system is genotype A, "Long" strain RSV. Briefly: RSV-A in vitro cytoprotection assay in HEp-2 cells (ATPlite readout of cell viability). The test is classed as cell-based, Human respiratory syncytial virus. The note with it: human respiratory syncytial virus. A digest of the protocol:
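Cytoprotection measured as ATP-based luminescence (ATPlite) after 4-day incubation of RSV Long-infected HEp-2 cells (8,000/well, 10% FBS DMEM) with 2-fold serial compound dilutions in duplicate. Identically treated virus-free plate gives cytotoxicity; EC50 calculated from viability.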

Where [1] appears, read: HEp-2, HEp-2 cells, genotype A “Long” strain RSV, cytoprotection, read-out: Human RSV-A (“Long” strain) EC50.

One may read the EC50 as the concentration giving half of the maximal effect.

Turning to `Cc1cccc(F)c1NC(=O)c1cc2c(s1)-c1ccccc1N(C(=O)c1cccc(-n3cnc(C4CC4)c3)n1)CC2` [Example 149], under setting [1], the EC50 is under 400 nM.

As for `COC(C)(C)CNc1cccc(C(=O)N2CCc3cc(C(=O)Nc4c(C)cccc4F)sc3-c3ccccc32)n1` [Example 373], the EC50 under setting [1] was under 400 nM.

As to `O=C(NC1CC1)c1cc2c(s1)-c1ccccc1N(C(=O)c1ccc3nc(N4CCOCC4)oc3c1)CC2` [Example 10], the EC50 under setting [1] is over 800 nM.

Regarding `CN(Cc1cccnc1)c1cccc(C(=O)N2CCc3cc(C(=O)NC4CC4)sc3-c3ccccc32)n1` [Example 295], the EC50 under setting [1] was over 800 nM.

Turning to `Cc1cnc(N2CC3(CCOCC3)C2)c(NS(=O)(=O)c2ccc(C(=O)N3CCc4cc(C(=O)Nc5c(C)cccc5F)sc4-c4ccccc43)cc2)c1` [Example 133], the EC50 under setting [1] is over 800 nM.

`COCCN(c1cccc(C(=O)N2CCc3cc(C(=O)Nc4c(C)cccc4F)sc3-c3ccccc32)n1)C1CCC1` [Example 328]: the EC50 under setting [1] is under 400 nM.

Take `Cc1cccc(F)c1NC(=O)c1cc2c(s1)-c1ccccc1N(C(=O)c1cccc(-c3cn(C(=O)OC(C)(C)C)c4c(C)cccc34)n1)CC2` [Example 252]: the EC50 under setting [1] was over 800 nM.

Regarding `Cc1cccc(F)c1NC(=O)c1cc2c(s1)-c1ccccc1N(C(=O)c1ccc(Nc3cccnc3N3CC4(CCOCC4)C3)cc1)CC2` [Example 134], the EC50 under setting [1] was over 800 nM.

For `O=C(NC1CNC1)c1cc2c(s1)-c1ccccc1N(C(=O)c1cccc(-c3c[nH]nc3C3CC3)n1)CC2` [Example 182], the EC50 under setting [1] is over 800 nM.

As to `Cc1cccc(F)c1NC(=O)c1cc2c(s1)-c1ccccc1N(C(=O)c1cccc(N3CCC[C@H]3Cc3ccccc3)n1)CC2` [Example 487], the EC50 under setting [1] was in the range of 400 to 800 nM.

In the case of `COC(C)(C)CN(C)c1cccc(C(=O)N2CCc3cc(C(=O)Nc4c(C)cccc4F)sc3-c3ccccc32)n1` [Example 470], the EC50 under setting [1] was under 400 nM.

Take `Cc1cccc(F)c1NC(=O)c1cc2c(s1)-c1ccccc1N(C(=O)c1cccc(-c3cn(C)nc3C3CC3)n1)CC2` [Example 197]: the EC50 under setting [1] is under 400 nM.

On to `O=C(NCC1CC1)c1cc2c(s1)-c1ccccc1N(C(=O)c1cccc(N3CCCOCC3)n1)CC2` [Example 100], for which, under setting [1], the EC50 is under 400 nM.

`Cc1noc([C@H]2C[C@H](O)CN2c2cccc(C(=O)N3CCc4cc(C(=O)Nc5c(C)cccc5F)sc4-c4ccccc43)n2)n1` [Example 497]: the EC50 under setting [1] was over 800 nM.

On to `COc1cccc2c1ccn2-c1cccc(C(=O)N2CCc3cc(C(=O)NC4CC4)sc3-c3ccccc32)n1` [Example 114], for which the EC50 under setting [1] was over 800 nM.

Turning to `CNC(=O)c1cc2c(s1)-c1ccccc1N(C(=O)c1cccc(N3CCCOCC3)n1)CC2` [Example 98], the EC50 under setting [1] was under 400 nM.

Consider `O=C(NC1CC1)c1cc2c(s1)-c1ccccc1N(C(=O)c1cccc(C3CCN(C4COC4)CC3)n1)CC2` [Example 57], for which the EC50 under setting [1] was 400 to 800 nM.

With `Cc1cccc(F)c1NC(=O)c1cc2c(s1)-c1ccccc1N(C(=O)c1cccc(NCc3ncco3)n1)CC2` [Example 350], the EC50 under setting [1] is under 400 nM.

Take `Cc1cccc(F)c1NC(=O)c1cc2c(s1)-c1ccccc1N(C(=O)c1cccc(N(C)C3CCS(=O)(=O)CC3)n1)CC2` [Example 455]: the EC50 under setting [1] was over 800 nM.

Turning to `Cc1cccc(F)c1NC(=O)c1cc2c(s1)-c1ccccc1N(C(=O)c1cccc(N3CCN(S(C)(=O)=O)Cc4ccccc43)n1)CC2` [Example 379], the EC50 under setting [1] is over 800 nM.

For the compound `O=C(NC1CC1)c1cc2c(s1)-c1ccccc1N(C(=O)c1cccc(-c3ccnc(C4CC4)c3)n1)CC2` [Example 166], the EC50 under setting [1] was over 800 nM.

Take `CCn1nccc1-c1cccc(C(=O)N2CCc3cc(C(=O)Nc4c(C)cccc4F)sc3-c3ccc(F)cc32)n1` [Example 174]: the EC50 under setting [1] was under 400 nM.

On to `Cc1ccc2c(c1)c(-c1cccc(C(=O)N3CCc4cc(C(=O)Nc5c(C)cccc5F)sc4-c4ccccc43)n1)cn2[Si](C)(C)C(C)(C)C` [Example 254], for which, for the setting “HEp-2, read-out: Human RSV-A (“Long” strain) EC50”, the EC50 was over 800 nM.

`O=C(NC1CC1)c1cc2c(s1)-c1ccccc1N(C(=O)c1ccc(NC(=O)N3CCOCC3c3ccccc3)cc1)CC2` (centres unmarked) [Example 15]: the EC50 under setting [1] was over 800 nM.

In the case of `O=C(NC1CC1)c1cc2c(s1)-c1ccccc1N(C(=O)c1cncc(N3CCOCC3)c1)CC2` [Example 47], under setting [1], the EC50 is over 800 nM.

For `O=C(NC1CC1)c1cc2c(s1)-c1ccccc1N(C(=O)c1cccc(-c3nncn3C3CC3)n1)CC2` [Example 126], the EC50 under setting [1] is over 800 nM.

Regarding `Cc1cccc(F)c1NC(=O)c1cc2c(s1)-c1ccccc1N(C(=O)c1cccc(N3C[C@@H](N)C[C@@H]3C)n1)CC2` [Example 390], under setting [1], the EC50 was over 800 nM.

As for `O=C(NC1CC1)c1cc2c(s1)-c1ccccc1N(C(=O)c1cccc(-c3cn[nH]c3C3CC3)n1)CC2` [Example 164], the EC50 under setting [1] is under 400 nM.

Turning to `O=C(N[C@@H]1CCOC1)c1cc2c(s1)-c1ccccc1N(C(=O)c1cccc(-c3c[nH]nc3C3CC3)n1)CC2` [Example 176], under setting [1], the EC50 is under 400 nM.

Consider `Cc1cccc(F)c1NC(=O)c1cc2c(s1)-c1ccccc1N(C(=O)c1cccc(NCCO)n1)CC2` [Example 329], for which the EC50 under setting [1] was over 800 nM.

In the case of `Nc1cccc2c1C(=O)N(c1cccc(C(=O)N3CCc4cc(C(=O)NC5CC5)sc4-c4ccccc43)n1)C2` [Example 413], the EC50 under setting [1] is over 800 nM.

As for `Cc1cccc(F)c1NC(=O)c1cc2c(s1)-c1cccc(F)c1N(C(=O)c1cccc(-c3c[nH]c4ncccc34)n1)CC2` [Example 259], the EC50 under setting [1] is under 400 nM.

With `Cc1cccc(F)c1NC(=O)c1cc2c(s1)-c1ccccc1N(C(=O)c1cccc(-c3cn(CCS(C)(=O)=O)nc3C3CC3)n1)CC2` [Example 227], under setting [1], the EC50 is over 800 nM.

Turning to `O=C(NC1CC1)c1cc2c(s1)-c1ccccc1N(C(=O)c1cccc(N3CCC(c4ccccc4)CC3)n1)CC2` [Example 30], the EC50 under setting [1] is over 800 nM.

For the compound `Cc1cccc(F)c1NC(=O)c1cc2c(s1)-c1ccccc1N(C(=O)c1cccc(N3C(=O)OC[C@H]3c3ccccc3)n1)CC2` [Example 424], the EC50 under setting [1] is over 800 nM.

Regarding `Cc1cccc(F)c1NC(=O)c1cc2c(s1)-c1ccccc1N(C(=O)c1cccc(-c3ccnn3C(C)C)n1)CC2` [Example 236], the EC50 under setting [1] was under 400 nM.

On to `O=C(NC1CC1)c1cc2c(s1)-c1ccccc1N(C(=O)c1cccc(N3CCOCc4ccccc43)n1)CC2` [Example 320], for which the EC50 under setting [1] is over 800 nM.

For the compound `Cc1cccc(F)c1NC(=O)c1cc2c(s1)-c1ccccc1N(C(=O)c1cccc(N(C)Cc3ccccn3)n1)CC2` [Example 337], the EC50 under setting [1] was under 400 nM.

In the case of `O=C(NC1CC1)c1nc2c(s1)CCN(C(=O)c1cccc(N3CCCOCC3)n1)c1ccccc1-2` [Example 108], the EC50 under setting [1] is 400 to 800 nM.

As for `COC[C@H]1CCCN1c1cccc(C(=O)N2CCc3cc(C(=O)Nc4c(C)cccc4F)sc3-c3cc(F)ccc32)n1` [Example 359], the EC50 under setting [1] is under 400 nM.

Consider `Cc1cccc(F)c1NC(=O)c1cc2c(s1)-c1ccccc1N(C(=O)c1cccc(N3CCS(=O)(=O)c4ccccc4[C@@H]3C)n1)CC2` [Example 434], for which, under setting [1], the EC50 is over 800 nM.

For the compound `O=C(NC1CC1)c1cc2c(s1)-c1ccccc1N(C(=O)c1ccc(Cl)c(N3CCCOCC3)n1)CC2` [Example 43], the EC50 under setting [1] fell in the range of 400 to 800 nM.

With `O=C(NC1CC1)c1cc2c(s1)-c1ccccc1N(C(=O)c1cccc(-c3cnn(C4CCOC4)c3)n1)CC2` (centres unmarked) [Example 159], the EC50 under setting [1] is over 800 nM.

Consider `CC(=O)c1ccc(-c2cccc(C(=O)N3CCc4cc(C(=O)NC5CC5)sc4-c4ccccc43)n2)cc1` [Example 63], for which, under setting [1], the EC50 was in the range of 400 to 800 nM.
